Assay results from patent US4038308A, “Prostaglandin derivatives” (American Home Products Corporation, priority 1976, dated 1977).

Columns and labels:
[1] = system: bronchoconstricting effects of a standard dose of acetylcholine; assay: Bronchodilation upon aerosol inhalation in the guinea pig: inhibition of acetylcholine bronchoconstriction (method of Rosenthale et al.); type: in vivo; settings: acetylcholine i.v. dose producing ca. 30% bronchoconstriction
Excerpt: In using the compounds of the invention to produce bronchodilating effects in warm-blooded animals, they may be administered in a variety of dosage forms: oral, injectable, and aerosol inhalation. Aerosol inhalation is a preferred method because of its rapid onset of action, great potency, and specificity of action. The particular dosage to obtain the bronchodilating effect will vary with the particular compound employed, the particular animal involved, and the degree of bronchodilation desired. In the guinea pig, by aerosol inhalation, the dose to produce bronchodilation is from about 0.15 micrograms to about 25 micrograms, and preferably from about 0.15 to about 15 micrograms. The bronchodilation produced upon aerosol inhalation can be observed by the method of Rosenthale et al., J. Pharmacol. Exp. Ther., 178, 541 (1971). Using this procedure the following results were obtained:
*The dose (i.v.) of acetylcholine which produces a ca. 30%

[2] = Hypotensive effect (blood pressure change) in the anesthetized dog, intravenous route; type: in vivo; settings: dose 100 μg/kg., average of two animals
Procedure: In the use of the compounds of the invention to produce hypotensive effects in warm-blooded animals, administration by the injectable route is preferred, preferably the intravenous route.
Thus in the anesthetized dog by the intravenous route the dose to produce hypotension is from about 1 μg/kg. to about 200 μg/kg. and preferably from about 10 μg/kg. to about 100 μg/kg. Using this procedure the following results were obtained.

Row | Structure (SMILES) | Percent Inhibition of the bronchoconstricting effects of a standard dose of acetylcholine ([1]; dose 0.15 μg) | Percent Inhibition of the bronchoconstricting effects of a standard dose of acetylcholine ([1]; dose 1.50 μg) | Percent Inhibition of the bronchoconstricting effects of a standard dose of acetylcholine ([1]; dose 15 μg) | Percent Inhibition of the bronchoconstricting effects of a standard dose of acetylcholine ([1]; dose .015 μg) | Δ B.P. [2]
1 | C#C[C@@H]1CC(=O)[C@H](CCCCCCC(=O)O)[C@H]1/C=C/[C@@H](O)CCCCC [3α-Ethynyl-2β-[(3S)-3-Hydroxy-Trans-1-Octenyl]-5-Oxo-1α-Cyclopentaneheptanoic Acid] | 52% | 58% | 76% | 28% | –
2 | C#CC1CC(=O)[C@H](C/C=C\CCCC(=O)O)[C@H]1/C=C/[C@H](O)CCCCC (stereo partly drawn) [7-([3RS]-3-Ethynyl-2β-[(3R)-3-Hydroxy-Trans-1-Octenyl]-5-Oxo-1β-Cyclopentyl)-Cis-5-Heptenoic Acid] | – | 43% | 68% | – | –
3 | C#CC1CC(=O)[C@H](C/C=C\CCCC(=O)O)[C@H]1/C=C/[C@@H](O)CCCCC (stereo partly drawn) [7-([3RS]-3-Ethynyl-2β-[(3S)-3-Hydroxy-Trans-1-Octenyl]-5-Oxo-1α-Cyclopentyl)-Cis-5-Heptenoic Acid] | – | – | – | – | -31 mm. mg
4 | C#CC1CC(=O)[C@H](C/C=C\CCCC(=O)O)[C@H]1/C=C/C(O)(C#C)CCCCC (stereo partly drawn) [7-[(3RS)-3-Ethynyl-2β-[(3RS)-3-Ethynyl-3-Hydroxy-Trans-1-Octenyl]-5-Oxo-1α-Cyclopentyl]-Cis-5-Heptenoic Acid] | 56% | 86% | – | 42% | -41 mm. mg
5 | C#CC1CC(=O)[C@H](CCCCCCC(=O)O)[C@H]1/C=C/C(C)(O)CCCCC (stereo partly drawn) [(3RS)-3-Ethynyl-2β[(3RS)-3-Hydroxy-3-Methyl-Trans-1-Octenyl]-5-Oxo-1α-cyclopentane-Heptanoic Acid] | 54% | 56% | 37% | – | -16 mm. mg
6 | C#CC1CC(=O)[C@H](CCCCCCC(=O)O)[C@H]1/C=C/C(=O)CCCCC (stereo partly drawn) [(3RS)-3-Ethynyl-5-Oxo-2β-(3-Oxo-Trans-1-Octenyl)-1α-Cyclopentaneheptanoic Acid] | – | 36% | 75% | – | –
